Tests used:
hypoxic-N2a cells = experiment: FasL-induced apoptosis in hypoxic N2a cells, Annexin V-PE staining; assay type: cell-based, mouse; details: hypoxic N2a cells treated with FasL, then peptide; for effect on Fas-mediated apoptosis / cell death compared to control: Fig 1B,C, three independent experiments
Protocol: Figure 1 The inhibitory effect of FBP or leptin-PEG-FBP (L-P-F) on FasL-induced apoptosis in hypoxic-N2a. (A) Schematic illustration of the L-P-F peptide synthesis. (B,C) The N2a cells were cultured in a hypoxic condition in the presence of membrane-bound soluble FasL (5 nM) for 6 h, as described in the Methods section. The cells were then treated with 300 μM of the indicated peptides for 6 h and examined for Annexin V-PE staining. (B) Representative histograms illustrate the percentage of apoptosis with the peptide treatments, depicting live cells (in black) and apoptotic cells (in red). (C) Bar graph represents the percentage of Annexin V positive cells with the peptide treatments. Normoxia describes cells cultured in normal oxygen conditions. Hypoxia describes cells cultured in hypoxic conditions. The bar graph indicates the average ± SD of three independent experiments. The data in (C) was analyzed using Mann–Whitney U test (* p < 0.05; ns: not-significant). TEXT PRINTED IN THE PICTURE: (B) Mock: Annexin V: 86.4 | (B) ctrl-FBP: Annexin V: 82.0 | (B) Leptin: Annexin V: 83.5 | (B) FBP: Annexin V: 54.0 | (B) L-P-F: Annexin V: 56.5 DOUBTS OF THE COPYIST ABOUT THIS PICTURE: Panel B: the gate numbers have no unit or measure printed beside them; 'Annexin V' comes from the axis label printed once at the edge of the panel. / Panel B, Mock: this is a control treatment, not a substance; it is included because a gate value is printed with it. / Small print in panel B, so these digits are not certain: Mock 86.4, ctrl-FBP 82.0, Leptin 83.5, FBP 54.0, L-P-F 56.5.
To evaluate the effect of leptin-PEG-FBP on Fas-mediated apoptosis, hypoxic Neuro2a mouse neuroblastoma (N2a) cells were treated with FasL ([…]), followed by a treatment with the peptides indicated in Figure 1B.
Neuro2a mouse neuroblastoma cells (N2a) were obtained from ATCC (Rockville, MD) and cultured in Dulbecco’s modified Eagle’s medium (DMEM, Gibco) containing 10% fetal bovine serum, penicillin (100 IU/mL), and streptomycin (100 μg/mL). To mimic the in vitro ischemia/reperfusion environment, N2a cells were maintained in a hypoxic condition (94% N2, 5% CO2, 1% O2, 37 °C) in oxygen glucose deprivation media (OGD, Life Technologies, Carlsbad, CA, USA) for 24 h. The cells were then reoxygenated in DMEM supplemented with 10% FBS (5% CO2, 20% O2, 37 °C) for another 24 h and cultured in Dulbecco’s modified Eagle’s medium (DMEM) (Gibco) containing high glucose, supplemented with 10% calf serum and 1% penicillin-streptomycin. To analyze the functional effects of leptin-PEG-FBP, normoxia- and hypoxia-induced N2a cells were seeded in a six-well plate at 2 × 10^5/well with serum-free DMEM and treated with leptin-PEG-FBP at 1 mM for 6 h followed by exposure to a soluble Fas ligand (5 nM). […]

Jurkat cells = experiment: FasL-mediated apoptosis in Jurkat cells, Annexin V staining (effect of PEG size); assay type: cell-based; details: membrane-bound soluble FasL 20 ng/ml, 3 hr, peptides 300 µM, FasL alone approximately 40% apoptosis, three independent experiments, Fig S1
Source text: In a prior study, we observed that the Fas-blocking peptide (FBP) effectively disrupted Fas–FasL interactions, thereby inhibiting Fas-mediated apoptosis both in vitro and in vivo when delivered intranasally. In this study, we explored the impact of FBP through the clinically relevant systemic route of delivery. To conjugate FBP with leptin, a brain-targeting peptide that effectively penetrates the BBB, we employed polyethylene glycol (PEG) as a linker. We initially evaluated the toxicity of PEG of various sizes in Jurkat cells. The treatment of Jurkat cells with membrane-bound FasL induced approximately 40% apoptosis compared to non-FasL (normal) cells. […] Based on our findings, we conjugated PEG-2K to FBP (PEG-FBP) and then linked it with the leptin peptide. […] (Figure S2). The conjugation schematic is illustrated in Figure 1A.
Figure S1. Effect of PEGylation length on apoptosis inhibition by FBP peptides. ( A) Apoptosis in Jurkat cells was assessed 3 hr post- treatment with membrane-bound soluble FasL (20 ng/ml), with and without peptides at a concentration of 300 µM using Annexin V staining. (B-C) Bar graphs illustrating the percentage of cells in early (B) and late (C) apoptosis. The compar ison includes non- treated, ctrl- FBP, FBP, and various PEGylated FBP (1K, 2K, 3.4K, 5K, 10K) after FasL treatment in Jurkat cells. […]

MCAO rat model [1] = experiment: TUNEL assay of brain sections of MCAO rats; assay type: in vivo; details: 48 h post-MCAO
Protocol: Ischemic stroke conditions in rat MCAO models lead to brain damage primarily through apoptosis. To assess the therapeutic effects of leptin-PEG-FBP on Fas-mediated apoptosis, we administrated 5 mg/kg of FBP systemically at 3 h and 6 h post-MCAO. At 48 h post-MCAO, we conducted necropsy to estimate the protein levels of Fas and cleaved caspase-3 in the brain samples. Ischemic stroke induced an elevated level of Fas and cleaved caspase-3, similar to the PBS-treated MCAO rats. […] Approximately 52% of cells were TUNEL-positive in the PBS-treated group, 55% in the PEG-FBP, and 47% in the leptin-treated group (Figure 5B). […]
Figure 5 Leptin-PEG-FBP attenuates apoptosis in the MCAO rat model. […] (A) Representative Western blots and quantification of protein expression for Fas and cleaved caspase-3 in the brain of […] at 48 h post-MCAO. […] (B) Representative microscopy images of TUNEL-stained brain sections (red) and quantification of TUNEL-positive cells in the ischemic region of MCAO after necropsy. (C) Representative microscopy images of cleaved caspase-3-stained brain sections (green) and quantification of positive cells in the ischemic region of MCAO after necropsy. […] Data represent mean ± SD (n = 3 animals per group) and were analyzed using Mann–Whitney U test. […]

MCAO rat model [2] = experiment: TTC staining, infarction in MCAO rats; assay type: in vivo; details: 5 mg/kg i.v., 48 h post-MCAO, n = 5, PBS group 37%, Fig 6A
Protocol: (§1) The induction of apoptosis in the penumbra after MCAO results in brain damage, leading to the formation of infarcts or areas of tissue damage. To examine the impact of leptin-PEG-FBP on brain infraction, we conducted triphenyltetrazolium chloride (TTC) staining at 48 h post-treatment.
(§2) Figure 6 Improvement of MCAO-induced infarction and histopathological changes with leptin-PEG-FBP treatment. MCAO rats were systemically treated with indicated peptides (5 mg/kg, i.v.) at […]. (A) Brain slices stained with TTC after necropsy. Quantitative analysis of infarction is shown on the right. Data represent mean ± SD (n = 5 animals per group). (B) Images of Nissl-stained brain slices (left) and quantitative analysis of infarction volume on the right. (C) Representative images of hematoxylin and eosin (H&E) brain sections from normal or MCAO-subjected animals after treatment. Data were analyzed using Mann–Whitney U test. Data represent the mean ± SD (* […]; ** p < 0.01; ns: not-significant).
Pathology in brain tissues was analyzed by staining 2 mm brain slices in 2% 2,3,5-tryphenyltetrazolium chloride (TTC, Sigma Aldrich, St. Louis, MO, USA) for 15 min at 37 °C. The infarcted volume was calculated after fixation using Image J software version 1.54d, as described.

MCAO rat model [3] = experiment: Nissl staining, infarction volume in MCAO rats; assay type: in vivo; details: 5 mg/kg i.v., 48 h, PBS group around 45%, Fig 6B
Protocol: as §1, §2
Infarcted brain volume was analyzed using Nissl staining. The OCT-embedded brain samples for cryosection were fixed using 4% PFA at room temperature and subjected to 0.1% crystal violet solution following standard protocol. The stained sections were cover-slipped and blindly pictured using full-screening scanner. The infarcted volume was calculated using Image J software version 1.54d.

MCAO rat model [4] = experiment: H&E histology of brain sections of MCAO rats; assay type: in vivo; details: 5 mg/kg i.v., 48 h, Fig 6C
Protocol: as §1, §2
Rats were sacrificed and perfused with PBS. Brains were carefully removed, embedded in OCT compound (Sakura Finetek, Alphen aan den Rijn, The Netherlands), rapidly cryopreserved in frigid isopentane chilled with liquid nitrogen, and stored at −80 °C until the subsequent sectioning procedure. […]

[5] = rat, in vivo, iv
Protocol: Figure S2. Leptin peptide-mediated brain delivery in rats. Biodistribution (left panel)
of A647-conjugated peptides delivered intravenous (n=3) in normal rats. Brain, lung,
liver, spleen and kidney were examined 24 hr post- inoculation. Rats were treated with
RV -M AT , the control peptide and the leptin peptide. Cumulative data (right panel)
show relative fluorescence intensities measured in arbitrary pixel values for examined
tissues. The measurements are compared to the n ormal groupand are based on three
(1 picture or pasted object on this page, not shown here)

[6] = mouse, in vivo, iv, 2.5 mg/kg
Protocol: To confirm the specificity of leptin-mediated FBP delivery to the brain, we systemically administered Alexa^647-conjugated leptin alone, PEG-FBP, and leptin-PEG-FBP in leptin receptor-deficient db/db mice subjected to photothrombosis (Figure 3A).
Wildtype and leptin receptor-deficient (db/db) mice were subjected to photothrombotic stroke, followed by administration of the indicated peptides (2.5 mg/kg Alexa^647-labelled peptides, i.v.). Organs were collected at 12 h post-delivery and imaged on Kodak imaging station. (A,B) Representative images and quantification of fluorescence intensities after necropsy. Control mice were inoculated with PBS. Fluorescence intensities measured in arbitrary pixel values were normalized to fluorescence intensities in the PBS-treated group. The data represent mean ± SD (n = 5 per group). The data in (B) were analyzed using Mann–Whitney U test (* p < 0.05; ** p < 0.01).
(§3) For bio-distribution studies, Alexa^647-conjugated peptides were intravenously (IV) administered at 2.5 mg/kg. […] Fluorescence was analyzed at designated time points. After 12 h inoculation, fluorescence was measured in the brain, lung, liver, spleen, and kidney using image station (Kodak, Stamford, CT, USA).

[7] = rat, in vivo
Protocol: To explore the feasibility of ischemic-specific FBP delivery, we administered Alexa^647-conjugated peptides to a rat middle cerebral artery occlusion (MCAO) ischemic stroke model. The peptides were delivered via the intravenous route (2.5 mg/kg) and the brain and peripheral organs were examined 24 h post-inoculation. […] Next, we conducted an in-depth analysis to validate the localization through confocal microscopy.
Rats underwent middle cerebral artery occlusion, followed by the administration of the indicated Alexa^647-labelled peptides (2.5 mg/kg, i.v.). Organs were harvested 24 h post-inoculation and imaged on Kodak imaging station. […] Control mice were inoculated with PBS.
Acute cerebral ischemia was produced using a 1 h occlusion of the right middle cerebral artery (MCAO) in Sprague–Dawley rats weighing 280–320 g (Orient Bio, Seoul, Republic of Korea), as previously described [76]. […]
as §3

Sequence	decrease in Annexin V positivity upon exposure to FasL (hypoxic-N2a cells; Fig 1B)	effect on Fas-mediated apoptosis / cell death compared to control (hypoxic-N2a cells)	effect on FasL-mediated apoptosis in Jurkat cells (Jurkat cells)	TUNEL-positive cells in the ischemic region (MCAO rat model [1]; 5 mg/kg i.v. at 3 h and 6 h post-MCAO, confocal, n = 3, PBS group 52%, Fig 5B)	change in TUNEL and cleaved caspase-3 positive cells (MCAO rat model [1]; 5 mg/kg i.v., Fig 5B,C)	infarction volume, TTC staining (MCAO rat model [2])	infarction volume, Nissl staining (MCAO rat model [3])	tissue damage in right hemisphere, H&E staining (MCAO rat model [4])	delivery to the brain compared to negative control peptide RV-MAT [5]	brain delivery in leptin receptor-deficient db/db mice [6]	Alexa647-positive cells in brain sections, confocal microscopy [7]
YCDEHFCY [FBP]	40%	significantly reduced cell death	significantly reduced FasL-mediated apoptosis	–	–	–	–	–	–	–	–
YCNSTVCY [ctrl-FBP, control FBP peptide YCNSTVCY]	–	did not demonstrate a reduction	–	–	–	–	–	–	–	–	–
YQQVLTSLPSQNVLQIANDLENLRDLLHLLGGGC [leptin]	–	did not demonstrate a reduction	–	~47%	no significant changes	32%	~45%	significant damage to the tissue morphology	successful delivery to the brain	did not bind to the brain	strong Alexa^647 positive cells

From paper PMC10780202, “Systemic Treatment with Fas-Blocking Peptide Attenuates Apoptosis in Brain Ischemia” (International Journal of Molecular Sciences, 2024)
